From patent publication US11317631B2, “Natamycin compositions and uses thereof” (Arec Crop Protection B.V., priority 2016, dated 2022) come the findings set out here.

The subject of data set [1] is Saccharomyces cerevisiae. Nature of the data set: Bioavailability: filter disc inhibition zone, disc moved to a new plate after 24 h (Example 17). Format: cell-based. Particulars: 50 μl of 3 mM natamycin. Here is the method: Saccharomyces cerevisiae (at least 10^5 cfu/ml) was distributed on Petri dishes with a diameter of 90 mm containing 10 ml PDA agar (Carl Roth, pH about 6) using sterilized swabs. Filter paper discs (Whatman) with a diameter of 6 mm were loaded with 50 μl of a solution containing a concentration of 3 mM natamycin. The size of the inhibition zone is a result of the natamycin released from the sample disc. After 24 h of incubation in the stove the size of the inhibition zone was measured using a digital caliper gauge. After measuring, the filter discs were removed and replaced on a new Petri dish similar to the previous one (90 mm containing 10 ml PDA agar and Saccharomyces cerevisiae (at least 10^5 cfu/ml) distributed by swabs). 24 hours after the replacement of the filters, the inhibition zone was measured again. The data are presented as square mm and are an average of four replicas.

Data set [2] is described as follows: Average particle size of natamycin batches (Example 14). Type of data set: physicochemical. The conditions noted are these: batches of Table 20. The text has this: Methods for determining the average size of particles in a composition are known to the skilled person. For example, Hukkanen and Braatz, 2003. Sensors and Actuators B 96: 451-459, discuss varies methods that can be used for determining the average particle size in a composition, including forward light scattering and ultrasonic extinction. A preferred method is sieve analysis or laser diffraction analysis, for example using a Analysette 22-MicroTec plus laser-particle-sizer (Fritsch, Idar-Oberstein, Germany).
Several batches of crude natamcyin, prepared as described herein above, and commercial batches of purified natamycin (95%) were obtained and analysed.

In data set [3] the test system is Saccharomyces cerevisiae. As to the kind of experiment: Bioavailability: filter disc inhibition zone on yeast agar plates (Examples 15 and 16). Format: cell-based. The conditions noted are these: 10 μl of 3 mM natamycin. The procedure: Saccharomyces cerevisiae (at least 10^5 cfu/ml) was distributed on Petri dishes with a diameter of 145 mm containing 30 ml Potato Dextrose Agar (PDA; Carl Roth; pH of about 6) using sterilized swabs. […] Following the application of a filter, Petri dishes were incubated for 16 h h in a refrigerator at 4° C. to allow diffusion of natamycin into the agar. After 16 h the filter discs were removed from the agar and the Petri dishes were incubated upside down in a stove at 30° C. […] After 24 h incubation in the stove the size of the inhibition zone was determined using a digital caliper gauge. The data are presented as square mm and are an average of six replicas. The effect of 3 mM natamycin on yeast growth in Petri dishes was determined as described herein above. Numbers represent surface of inhibition zones expressed in square mm. Same methods as described above in Example 15. The effect of 3 mM natamycin on yeast growth in Petri dishes was determined as described herein above, unless otherwise indicated.

Another data set relates to Botrytis cinerea. Nature of the data set: Botrytis on wounded apples (Examples 18 to 20). Format: in vivo. The procedure: Tested fruit: apples […] from organic origin/SKAL certified. SKAL is a semi-governmental Dutch organization that controls organic production in the Netherlands. Wounds of the apples were checked at day 3. Natamycin with different proteins and starch contents were tested at a natamycin concentration of 100 ppm. Used pathogen: Botrytis cinerea spore-suspension containing 2*10^6 spores/ml. Application: The fruit peel of the apple was damaged with a cork borer, ø 4 mm and depth 0.5 cm into the fruit, with 2 wounds per apple. 40 microliter of a freshly prepared spore suspension of B. cinerea was applied by pipette onto each wound. Subsequently, the spore-suspension was allowed to air-dry for 4 hours. Then, 50 microliter of a treatment as presented in the list above was applied by pipette to each wound. All fruits were kept at room temperature (20° C.). Wounds of the apples were checked after 3 days of incubation. The efficacy was calculated by measuring the surface area (square mm) of the rot on the apples compared to the untreated control (see Tables 31 and 32). Replicates: All treatments for the apple experiment were performed on six individual apples with two wounds each resulting in 12 wounds per treatment. This experiment was performed as described in Example 18. This experiment was performed as described in Example 19. Natamycin A and Natamycin E were used at different concentrations and data were recorded at different time points, as is indicated in Table 35.

Data set [4] is described as follows: BET surface area analysis. Format: physicochemical. Also on record: BET analysis: dose or concentration left out as unconfirmed. The conditions noted are these: for BET analysis: milled to a particle size of 2 μm; for BET: batches of Table 20. The procedure: Surface area may be measured by any suitable methods or techniques known in the art. For example, with respect to the variations described above, the surface area is measured by BET (also known in the art as Brunauer, Emmett and Tellers analysis theory). Using BET analysis, the surface area of the natamycin composition may be determined by physical adsorption of nitrogen (N2) gas on the surface of the natamycin composition, which is a solid. The value of the BET analysis is expressed as m^2 per gram of solid material.
Brunauer, Emmett, and Tellers (BET) analysis theory was used to determine the surface area (expressed as m^2/g) for Natamycin Composition A and Control Natamycin. Each sample was milled to a particle size of […] prior to BET analysis.

Data set [5] in a line: Liquid phase concentration of natamycin in the suspensions (centrifugation, HPLC). Particulars: supernatant of suspension in water. Type of data set: physicochemical. The procedure: The supernatants were then collected and diluted 10-fold with an acetonitrile:water (3:7) solution. The concentration of natamycin in the liquid layer was then determined by injecting the samples individually onto an HPLC and comparing the UV-Vis absorption to that of a standard natamycin stock solution.

The subject of the next data set is Fusarium graminearum. Type of data set: in vivo. The conditions noted are these: for Average Vigor: 0-10 scale.
Data set [6] in a line: Saturation studies: dissolution in water with 5% polysorbate 80, HPLC peak areas. Type of data set: physicochemical. Particulars: water + 5% polysorbate 80, 22° C. Here is the method:
Saturation studies were performed on Natamycin Composition A and Control Natamycin, both at 25% (w/w %) suspension in water. […] To prepare the samples for solubility analysis, a plastic pipet was used to add 3 drops (0.25 mL) of thoroughly shaken formulation to 10 mL of the dissolution medium. […] Then, 0.05 mL of the mobile phase was added to 0.25 mL of the filtrated natamycin aliquot. The aliquots were then injected individually onto a high performance liquid chromatography (HPLC) column and the resulting peak areas were calculated. […] The column temperature was set to 25° C. and the natamycin was detected at a wavelength of 304 nm.

The structures appear in SMILES notation. Where two headings read alike, the source gives them in different places.

Take `C[C@@H]1C/C=C/C=C/C=C/C=C/[C@H](O[C@@H]2O[C@H](C)[C@@H](O)[C@H](N)[C@@H]2O)C[C@@H]2O[C@](O)(C[C@@H](O)C[C@H]3O[C@@H]3/C=C/C(=O)O1)C[C@H](O)[C@H]2C(=O)O` [Natamycin E, natamycin]: the Inhibition zone with Saccharomyces cerevisiae [1] (24 h) amounted to 480 mm^2; in the data set on Saccharomyces cerevisiae [1] (48 h (disc replaced on a new plate after 24 h)), 298 mm^2; with Saccharomyces cerevisiae [3] (Table 24) it was 242 mm2; in the data set with Saccharomyces cerevisiae [3] (Table 26), 188 mm2; in the data set with Saccharomyces cerevisiae [3] (Table 27), 179 mm2; in the data set with Saccharomyces cerevisiae [3] (Table 28), 110 mm2. The “D0.5 (average particle size of the particles)” value in data set [2] is on record as 14.4 μm. Further, the Efficacy in the data set with Botrytis cinerea (Table 32, 100 ppm natamycin, day 3) is reported as 54%; in the data set on Botrytis cinerea (Table 34, day 3), 75%; with Botrytis cinerea (Table 34, day 5) it was 58%; in the data set on Botrytis cinerea (Table 34, day 7), 53%; with Botrytis cinerea (Table 34, day 9), 42%; in the data set with Botrytis cinerea (Table 35, 100 ppm, day 3), 84%. Further, the Efficacy in the data set on Botrytis cinerea (Table 35, 100 ppm, day 5) is listed as 41%; in the data set with Botrytis cinerea (Table 35, 100 ppm, day 7) it was 12%; in the data set with Botrytis cinerea (Table 35, 2000 ppm, day 3) it was 100%; in the data set with Botrytis cinerea (Table 35, 2000 ppm, day 5) it was 62%; with Botrytis cinerea (Table 35, 2000 ppm, day 7), 50%.

Turning to `C[C@@H]1C/C=C/C=C/C=C/C=C/[C@H](O[C@@H]2O[C@H](C)[C@@H](O)[C@H](N)[C@@H]2O)C[C@@H]2O[C@](O)(C[C@@H](O)C[C@H]3O[C@@H]3/C=C/C(=O)O1)C[C@H](O)[C@H]2C(=O)O` [Control Natamycin, comprising natamycin batch # 140206], the BET analysis in data set [4] is given as 7.7 m^2/g.

In data set [4], `C[C@@H]1C/C=C/C=C/C=C/C=C/[C@H](O[C@@H]2O[C@H](C)[C@@H](O)[C@H](N)[C@@H]2O)C[C@@H]2O[C@](O)(C[C@@H](O)C[C@H]3O[C@@H]3/C=C/C(=O)O1)C[C@H](O)[C@H]2C(=O)O` [Control Natamycin, comprising natamycin F] registered a BET analysis of 9.4 m^2/g.

For the molecule `C[C@@H]1C/C=C/C=C/C=C/C=C/[C@H](O[C@@H]2O[C@H](C)[C@@H](O)[C@H](N)[C@@H]2O)C[C@@H]2O[C@](O)(C[C@@H](O)C[C@H]3O[C@@H]3/C=C/C(=O)O1)C[C@H](O)[C@H]2C(=O)O` [Natamycin 140206, natamycin], in data set [4], the BET amounted to 7.73 m^2/g. The Inhibition zone with Saccharomyces cerevisiae [3] (Table 22) is given as 167 mm^2.

Consider `C[C@@H]1C/C=C/C=C/C=C/C=C/[C@H](O[C@@H]2O[C@H](C)[C@@H](O)[C@H](N)[C@@H]2O)C[C@@H]2O[C@](O)(C[C@@H](O)C[C@H]3O[C@@H]3/C=C/C(=O)O1)C[C@H](O)[C@H]2C(=O)O` [Control Natamycin, natamycin], for which, in data set [4] (average of the trials of Table 4), the “average BET surface area” value is recorded as 8.5 m^2/g. The “Natamycin in the liquid phase” value in data set [5] is 68 µg/mL. The “Number of plants at last count” value stood at 47 with Fusarium graminearum (2.5 g AI/100 kg), 45 in the data set with Fusarium graminearum (5 g AI/100 kg), 36 in the data set on Fusarium graminearum (10 g AI/100 kg) and 45 in the data set with Fusarium graminearum (20 g AI/100 kg). In addition, the Plant loss worked out at 52% in the data set on Fusarium graminearum (2.5 g AI/100 kg), 52% with Fusarium graminearum (5 g AI/100 kg), 62% with Fusarium graminearum (10 g AI/100 kg) and 52% in the data set with Fusarium graminearum (20 g AI/100 kg). Moreover, the “Average Vigor” value was found to be 7.9 in the data set on Fusarium graminearum (2.5 g AI/100 kg), 7.8 in the data set with Fusarium graminearum (5 g AI/100 kg), 7.5 in the data set on Fusarium graminearum (10 g AI/100 kg) and 7.7 with Fusarium graminearum (20 g AI/100 kg). In addition, the values for the HPLC peak area in data set [6] (20 s), in data set [6] (60 s) and in data set [6] (300 s) were 3966 mAUs, 4077 mAUs and 4005 mAUs, respectively.

On to `C[C@@H]1C/C=C/C=C/C=C/C=C/[C@H](O[C@@H]2O[C@H](C)[C@@H](O)[C@H](N)[C@@H]2O)C[C@@H]2O[C@](O)(C[C@@H](O)C[C@H]3O[C@@H]3/C=C/C(=O)O1)C[C@H](O)[C@H]2C(=O)O` [Natamycin F, natamycin], for which the BET in data set [4] stood at 9.36 m^2/g. The “D0.5 (average particle size of the particles)” value in data set [2] is reported as 15.3 μm. In addition, the Inhibition zone in the data set on Saccharomyces cerevisiae [3] (Table 21, 16 h 4° C. then 24 h 30° C.) amounted to 183 mm^2; with Saccharomyces cerevisiae [3] (Table 25), 142 mm2; in the data set on Saccharomyces cerevisiae [3] (Table 29), 100 mm2. The molecule further showed an Efficacy with Botrytis cinerea (Table 33, 100 ppm natamycin, day 3) of 60.2%.
